Assay results published in publication PMC8378262 (Journal of controlled release : official journal of the …, 2021).
“And” between values parts separate entries of the source, which are not always exact repeats. Equal entries are not always repeated. Where two headings read alike, the source gives them in different places.

Columns and labels:
PAH-SMC = assay: Antiproliferative effects, Cell Counting Kit-8, PAH-SMC; assay type: cell-based, human
[1] = Pharmacokinetics in rat plasma after intravenous administration; assay type: in vivo, Sprague Dawley rats
ROCK-II = ROCK-II (Homo sapiens, UniProt O75116); assay: Cell-free Rho-associated kinase activity; assay type: biochemical
Chain of ROCK-II (O75116 whole entry, species assumed): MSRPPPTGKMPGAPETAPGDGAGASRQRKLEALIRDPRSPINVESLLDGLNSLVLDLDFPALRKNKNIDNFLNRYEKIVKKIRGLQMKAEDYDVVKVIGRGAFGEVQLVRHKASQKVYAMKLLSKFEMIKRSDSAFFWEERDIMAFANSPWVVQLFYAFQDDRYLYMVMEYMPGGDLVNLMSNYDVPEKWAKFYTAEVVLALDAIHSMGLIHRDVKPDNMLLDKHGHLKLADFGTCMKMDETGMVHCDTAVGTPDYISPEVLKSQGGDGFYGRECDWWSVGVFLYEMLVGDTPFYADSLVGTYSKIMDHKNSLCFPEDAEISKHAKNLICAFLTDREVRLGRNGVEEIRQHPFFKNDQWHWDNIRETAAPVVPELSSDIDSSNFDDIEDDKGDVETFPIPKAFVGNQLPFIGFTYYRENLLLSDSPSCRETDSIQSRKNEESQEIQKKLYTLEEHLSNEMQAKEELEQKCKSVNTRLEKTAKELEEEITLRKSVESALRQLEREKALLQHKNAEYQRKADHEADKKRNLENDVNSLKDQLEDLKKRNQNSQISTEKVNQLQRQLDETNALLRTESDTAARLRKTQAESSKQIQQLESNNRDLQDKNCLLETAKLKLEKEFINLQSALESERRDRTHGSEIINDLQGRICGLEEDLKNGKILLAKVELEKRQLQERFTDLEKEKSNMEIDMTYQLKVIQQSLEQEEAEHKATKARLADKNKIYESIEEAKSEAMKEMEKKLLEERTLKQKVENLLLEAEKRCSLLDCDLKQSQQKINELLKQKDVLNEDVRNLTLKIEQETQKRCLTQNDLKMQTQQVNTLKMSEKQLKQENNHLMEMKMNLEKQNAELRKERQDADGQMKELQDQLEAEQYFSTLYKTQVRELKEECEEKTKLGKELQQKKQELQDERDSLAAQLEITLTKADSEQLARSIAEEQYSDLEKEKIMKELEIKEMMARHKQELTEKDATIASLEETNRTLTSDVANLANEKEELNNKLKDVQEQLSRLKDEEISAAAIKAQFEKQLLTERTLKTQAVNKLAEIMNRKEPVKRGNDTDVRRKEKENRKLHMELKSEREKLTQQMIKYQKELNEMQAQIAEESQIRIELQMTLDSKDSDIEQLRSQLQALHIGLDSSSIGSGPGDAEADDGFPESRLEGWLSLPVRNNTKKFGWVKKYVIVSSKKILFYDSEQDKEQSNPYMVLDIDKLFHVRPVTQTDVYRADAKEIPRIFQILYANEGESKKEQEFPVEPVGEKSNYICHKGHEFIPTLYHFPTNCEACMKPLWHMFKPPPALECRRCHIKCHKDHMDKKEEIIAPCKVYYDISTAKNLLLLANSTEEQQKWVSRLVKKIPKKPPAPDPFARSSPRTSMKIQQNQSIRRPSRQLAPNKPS

[2] = molecular target: T1, bactosomal human NADPH-CYP reductase (Homo sapiens, UniProt P16435); assay: Enzymatic reduction assay of FasPRO, LC-MS/MS; assay type: in vitro ADME
T1 sequence (P16435 1-677): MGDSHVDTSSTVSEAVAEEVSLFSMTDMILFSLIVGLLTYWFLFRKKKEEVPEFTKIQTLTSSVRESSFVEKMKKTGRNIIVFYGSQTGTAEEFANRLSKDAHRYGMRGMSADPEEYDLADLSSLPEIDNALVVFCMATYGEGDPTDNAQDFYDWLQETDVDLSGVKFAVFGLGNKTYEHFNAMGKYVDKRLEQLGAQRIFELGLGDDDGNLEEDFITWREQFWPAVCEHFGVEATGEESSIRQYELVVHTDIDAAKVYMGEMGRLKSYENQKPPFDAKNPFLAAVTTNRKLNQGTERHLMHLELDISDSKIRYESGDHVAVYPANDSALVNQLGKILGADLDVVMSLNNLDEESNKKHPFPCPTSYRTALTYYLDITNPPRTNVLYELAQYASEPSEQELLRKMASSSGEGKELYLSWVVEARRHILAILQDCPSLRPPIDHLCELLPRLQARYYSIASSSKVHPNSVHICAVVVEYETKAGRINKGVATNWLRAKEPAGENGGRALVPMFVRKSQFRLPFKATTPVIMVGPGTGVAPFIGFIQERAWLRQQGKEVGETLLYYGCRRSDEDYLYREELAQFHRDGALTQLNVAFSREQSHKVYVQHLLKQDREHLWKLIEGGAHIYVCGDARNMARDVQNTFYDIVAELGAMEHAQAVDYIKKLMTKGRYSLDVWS

N-SMC = assay: Antiproliferative effects, Cell Counting Kit-8, N-SMC; assay type: cell-based, human
PAH-SMCs = assay: Bioreduction of FasPRO in cultured PAH-SMCs; assay type: cell-based, human
phospho-MYPT1 [3] = assay: Myosin phosphatase-targeting protein phosphorylation; assay type: cell-based, human; settings: PAH-ECs, 1.0 μM
PAH-ECs = assay: Bioreduction of FasPRO in cultured PAH-ECs; assay type: cell-based, human; settings: 24 h incubation
cGMP [4] = assay: Intracellular cGMP; assay type: cell-based, human; settings: PAH-ECs
cGMP [5] = assay: Intracellular cGMP; assay type: cell-based, human; settings: for intracellular level of cGMP: PAH-SMCs, 0.1–0.001 μM
PAH-EC = assay: cells; assay type: cell-based; settings: Homo sapiens, 24 h
phospho-MYPT1 [6] = assay: Myosin phosphatase-targeting protein phosphorylation; assay type: cell-based, human; settings: PAH-SMCs, 1.0 μM, 24 h
[7] = Homo sapiens, 24 h, read-out: PAH-SMC (IC50) Normoxia, normoxia, 24 h treatment
[8] = Homo sapiens, 24 h, read-out: N-SMC (IC50) Normoxia
[9] = read-out: PAH-EC (IC50) Hypoxia
[10] = read-out: PAH-EC (IC50) Normoxia
[11] = male, Sprague-Dawley, rat, plasma, iv, 3 mg/kg

O=c1[nH]ccc2c(S(=O)(=O)N3CCCNCC3)cccc12 [FasOH, reference compound]
IC50 (PAH-SMC; Homo sapiens, 24 h, read-out: PAH-SMC (IC50) Hypoxia): 10.3 ± 2.6 µM | IC50 (PAH-SMC; Homo sapiens, 24 h, read-out: PAH-SMC (IC50) Normoxia): 6.9 µM | maximum plasma concentration (Cmax) of FasOH as share of that of the parent drug ([1]; rats given intravenous fasudil 3 mg/kg): 37~52% | inhibition of the kinase activity of ROCK-II (comparison in words) (ROCK-II; 1.0 mU ROCK-II, 10 μM ATP): equal potency

O=[N+]([O-])c1ccc(COc2nccc3c(S(=O)(=O)N4CCCNCC4)cccc23)cc1 [FasPRO, 5-((1,4-diazepan-1-yl)sulfonyl)-1-((4-nitrobenzyl)oxy)isoquinoline]
IC50 (PAH-SMC; [7]): 53.5 µM | concentrations at which an antiproliferative effect was observed (PAH-SMC; normoxia, cells not given): > 100 µM | prodrug converted into FasOH or fasudil ([2]; hypoxia (0.1% O2), after 24 h of reaction): More than 60% | reduction of FasPRO by the reductase ([2]; normoxia, any of the time points): did not occur | IC50 (N-SMC; Homo sapiens, 24 h, read-out: N-SMC (IC50) Hypoxia): 1.04 ± 0.1 µM | IC50 (N-SMC; [8]): 248 ± 28.9 µM | activation of FasPRO (PAH-SMCs; 0.1% O2): activated | activation of FasPRO (PAH-SMCs; 1% and 10% O2): not at 1% and 10% O2 | fragments of FasPRO after bioreduction in cell lysate (PAH-SMCs; 12 h, hypoxia): FasOH (major fragment) or fasudil (minor fragment) | content of FasPRO in cells (PAH-SMCs; hypoxia, 24 h incubation, versus normoxia): decreased | fragmentation of FasPRO in cells (PAH-SMCs; normoxia, 24 h incubation): did not undergo significant fragmentation | hypoxia-driven phosphorylation of MYPT1 (phospho-MYPT1 [3]): reversed the process | phospho-MYPT-1 level (phospho-MYPT1 [3]; normoxia): did not cause any changes | content of FasPRO in cells (PAH-ECs; hypoxia, versus normoxia): decreased | fragmentation of FasPRO in cells (PAH-ECs; normoxia): did not undergo significant fragmentation | intracellular level of cGMP (cGMP [4]; hypoxia): dose-dependently increased | intracellular level of cGMP (cGMP [4]; normoxia): did not improve cGMP secretion | intracellular level of cGMP (cGMP [5]; hypoxia): dose-dependently increased | intracellular level of cGMP (cGMP [5]; normoxia): did not improve cGMP secretion | IC50 (PAH-EC; [9]): 25.4 ± 4.8 µM | IC50 (PAH-EC; [10]): 2720 ± 50.9 µM | hypoxia-driven phosphorylation of MYPT1 (phospho-MYPT1 [6]): reversed the process | phospho-MYPT-1 level (phospho-MYPT1 [6]; normoxia): did not cause any changes | terminal half-life of FasPRO relative to that of fasudil ([1]; Sprague-Dawley rats, intravenous, 3 mg/kg): 36 fold and ~ 36 fold | AUC(0-inf) [1, 11]: 951 ± 137 ng·h/mL | C0 [1, 11]: 471 ± 122 ng/mL | Vd [1, 11]: 10.1 ± 4 L/kg | clearance [1, 11]: 18.3 mL/min/kg | half-life ([1]; male, Sprague-Dawley, rat, plasma, iv, 3 mg/kg, t1/2, Sprague-Dawley rats): > 7 h | fasudil in the blood of FasPRO-treated rats ([1]; remaining two of four rats, FasPRO iv 3 mg/kg): not detectable | reduction in ROCK-II kinase activity on addition of the 4-nitrobenzyl group to the hydroxyl group of FasOH (ROCK-II; relative to FasOH): 15 fold

O=S(=O)(c1cccc2cnccc12)N1CCCNCC1 [Fasudil, reference compound]
IC50 (PAH-SMC; [7]): 4.9 µM | IC50 (PAH-SMC; read-out: PAH-SMC (IC50) Normoxia, normoxia, 24 h treatment): 4.95 ± 1.3 µM | IC50 (N-SMC; [8]): 2.8 ± 0.6 µM | IC50 (N-SMC; read-out: N-SMC (IC50) Hypoxia, hypoxia (0.1% O2), 24 h treatment): 1.68 ± 0.5 µM | hypoxia-driven phosphorylation of MYPT1 (phospho-MYPT1 [3]): reversed the process | intracellular level of cGMP (cGMP [4]; hypoxia): dose-dependently increased | intracellular level of cGMP (cGMP [4]; normoxia): dose-dependently increased | intracellular level of cGMP (cGMP [5]; hypoxia): dose-dependently increased | intracellular level of cGMP (cGMP [5]; normoxia): dose-dependently increased | increase in cGMP levels in PAH-SMCs compared to PAH-ECs (cGMP [5]; fasudil preincubation): 5 fold | IC50 (PAH-EC; [9]): 34.1 ± 5.9 µM | IC50 (PAH-EC; [10]): 16 ± 1.2 µM | hypoxia-driven phosphorylation of MYPT1 (phospho-MYPT1 [6]): reversed the process | AUC(0-inf) [1, 11]: 363 ± 54.1 ng·h/mL | C0 [1, 11]: 1360 ± 368 ng/mL | Vd [1, 11]: 0.9 ± 0.2 L/kg | clearance [1, 11]: 46.7 mL/min/kg
